Measurements reported in ChEMBL document CHEMBL5465560, “Selectivity Literature for EUbOPEN Chemogenomic Library” (2024).

Assays:
[1] = molecular target: T1, Ephrin type-B receptor 1 (Homo sapiens) (UniProt P54762); test: Selectivity interaction (KinomeScan (DiscoverX)) EUB0000229b EPHB1; details: at 10 µM
T1 sequence (whole entry): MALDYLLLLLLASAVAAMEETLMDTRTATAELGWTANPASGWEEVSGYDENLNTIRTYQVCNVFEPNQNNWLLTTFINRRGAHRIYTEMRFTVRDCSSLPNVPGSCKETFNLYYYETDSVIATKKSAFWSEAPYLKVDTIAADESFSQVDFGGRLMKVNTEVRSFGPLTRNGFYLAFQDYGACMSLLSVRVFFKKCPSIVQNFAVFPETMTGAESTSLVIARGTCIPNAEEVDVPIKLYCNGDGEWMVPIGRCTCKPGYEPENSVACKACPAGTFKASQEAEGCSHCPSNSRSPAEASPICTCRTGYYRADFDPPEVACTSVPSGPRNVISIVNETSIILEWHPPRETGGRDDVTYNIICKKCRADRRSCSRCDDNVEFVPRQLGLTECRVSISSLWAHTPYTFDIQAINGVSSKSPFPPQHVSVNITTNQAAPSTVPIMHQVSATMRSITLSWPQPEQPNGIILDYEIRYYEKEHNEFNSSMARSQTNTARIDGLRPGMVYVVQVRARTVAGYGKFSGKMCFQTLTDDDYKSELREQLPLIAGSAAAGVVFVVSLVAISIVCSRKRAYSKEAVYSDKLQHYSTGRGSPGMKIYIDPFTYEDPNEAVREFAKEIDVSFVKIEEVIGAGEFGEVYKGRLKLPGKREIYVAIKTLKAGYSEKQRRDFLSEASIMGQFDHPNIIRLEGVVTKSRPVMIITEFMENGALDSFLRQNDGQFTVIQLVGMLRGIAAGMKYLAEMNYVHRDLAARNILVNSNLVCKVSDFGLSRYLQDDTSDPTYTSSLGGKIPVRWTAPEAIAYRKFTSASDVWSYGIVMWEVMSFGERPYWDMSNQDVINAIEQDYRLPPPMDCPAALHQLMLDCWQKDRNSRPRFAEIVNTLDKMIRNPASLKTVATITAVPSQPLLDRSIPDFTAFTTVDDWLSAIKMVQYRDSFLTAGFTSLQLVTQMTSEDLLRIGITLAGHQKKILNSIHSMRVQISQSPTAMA

[2] = molecular target: Tyrosine-protein kinase Lyn (Homo sapiens, UniProt P07948); test: Selectivity interaction (KinomeScan (DiscoverX)) EUB0000595a LYN; details: at 10 µM
D(3) dopamine receptor = D(3) dopamine receptor (Homo sapiens, UniProt P35462); test: Selectivity interaction (GPCR panel (PDSP screen)) EUB0001079a DRD3; details: at 10 µM
[3] = molecular target: Serine/threonine-protein kinase mTOR (Homo sapiens, UniProt P42345); test: Selectivity interaction (Kinase panel (Z-LYTE Assay)) EUB0001632a MTOR; details: at 10 µM
[4] = molecular target: 5'-AMP-activated protein kinase catalytic subunit alpha-1 (Homo sapiens, UniProt Q13131); test: Selectivity interaction (KinomeScan (DiscoverX)) EUB0000666a PRKAA1; details: at 10 µM
[5] = molecular target: SWI/SNF-related matrix-associated actin-dependent regulator of chromatin subfamily A member 4 (Homo sapiens) (UniProt P51532); test: Selectivity interaction (Bromodomain panel (DSF asssay)) EUB0000270b SMARCA4
[6] = molecular target: RAC-alpha serine/threonine-protein kinase (Homo sapiens, UniProt P31749); details: at 10 µM
[7] = molecular target: Calcium/calmodulin-dependent protein kinase type II subunit gamma (Homo sapiens) (UniProt Q13555); test: Selectivity interaction (KinomeScan (DiscoverX)) EUB0001049a CAMK2G; details: at 1 µM
[8] = molecular target: T2, Mitogen-activated protein kinase 12 (Homo sapiens) (UniProt P53778); test: Selectivity interaction (KinomeScan (DiscoverX)) EUB0001049a MAPK12; details: at 1 µM
T2 sequence (whole entry): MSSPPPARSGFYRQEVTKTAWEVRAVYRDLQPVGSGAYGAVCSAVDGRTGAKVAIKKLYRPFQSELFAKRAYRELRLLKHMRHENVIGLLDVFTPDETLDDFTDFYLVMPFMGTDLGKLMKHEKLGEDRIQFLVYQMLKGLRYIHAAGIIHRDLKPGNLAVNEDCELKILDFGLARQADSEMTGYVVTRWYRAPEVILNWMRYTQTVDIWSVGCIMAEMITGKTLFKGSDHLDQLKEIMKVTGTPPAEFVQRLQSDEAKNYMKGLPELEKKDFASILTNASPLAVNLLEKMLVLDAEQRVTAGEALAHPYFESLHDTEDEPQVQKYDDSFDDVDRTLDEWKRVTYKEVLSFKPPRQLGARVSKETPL

[9] = molecular target: Calcium/calmodulin-dependent protein kinase type 1G (Homo sapiens) (UniProt Q96NX5); test: Selectivity interaction (KinomeScan (DiscoverX)) EUB0001049a CAMK1G; details: at 1 µM
[10] = molecular target: cAMP-dependent protein kinase catalytic subunit alpha (Homo sapiens, UniProt P17612); test: Selectivity interaction (Kinase panel (33PanQinase(R) Activity Assay)) EUB0000877a PRKACA
D(1A) dopamine receptor = D(1A) dopamine receptor (Homo sapiens, UniProt P21728); test: Selectivity interaction (Dopamine D1 - cAMP agonist mode ) EUB0000877a DRD1
[11] = molecular target: T3, Platelet-derived growth factor receptor alpha (Homo sapiens, UniProt P16234); test: Selectivity interaction (Kinase panel (Enzyme activity assay)) EUB0000612a PDGFRA
[12] = molecular target: Mitogen-activated protein kinase 1 (Homo sapiens, UniProt P28482); test: Selectivity interaction (Kinase panel (literature)) EUB0001199aCl MAPK1; details: at 1 µM
[13] = molecular target: MAP kinase-interacting serine/threonine-protein kinase 2 (Homo sapiens, UniProt Q9HBH9); test: Selectivity interaction (KinomeScan (DiscoverX)) EUB0000607a MKNK2; details: at 10 µM
[14] = molecular target: Tyrosine-protein kinase JAK1 (Homo sapiens, UniProt P23458); test: Selectivity interaction (SelectScreen profiling (Invitrogen)) EUB0000607a JAK1; details: at 2 µM
[15] = test system: Tyrosine-protein kinase ABL1 (Homo sapiens), P00519 [Q252H]; test: Selectivity interaction (KinomeScan (DiscoverX)) EUB0000607a ABL1; details: at 10 µM
[16] = molecular target: aryl hydrocarbon receptor (AHR) (Homo sapiens, UniProt P35869); test: Selectivity interaction (Panel of kinases, GPCRs, ion channels and transporters (enzymatic assay)) EUB0000266bCl AHR
[17] = molecular target: 3',5'-cyclic-AMP phosphodiesterase 4B (Homo sapiens) (UniProt Q07343); test: Selectivity interaction (Panel of kinases, GPCRs, ion channels and transporters (enzymatic assay)) EUB0000266bCl PDE4B
[18] = test system: Tyrosine-protein kinase ABL1 (Homo sapiens), P00519 [M351T]; details: at 10 µM
[19] = molecular target: T3, Platelet-derived growth factor receptor alpha; test: Selectivity interaction (KinomeScan (DiscoverX)) EUB0000092b PDGFRA; details: at 10 µM
[20] = molecular target: Serine/threonine-protein kinase PAK 4 (Homo sapiens, UniProt O96013); test: Selectivity interaction (Ambit KINOMEscan and KiNATiv profiling in Jurkat cells) EUB0000090b PAK4; type: cell-based; details: at 1 µM
Sequence of Serine/threonine-protein kinase PAK 4 (O96013 whole entry, looked up): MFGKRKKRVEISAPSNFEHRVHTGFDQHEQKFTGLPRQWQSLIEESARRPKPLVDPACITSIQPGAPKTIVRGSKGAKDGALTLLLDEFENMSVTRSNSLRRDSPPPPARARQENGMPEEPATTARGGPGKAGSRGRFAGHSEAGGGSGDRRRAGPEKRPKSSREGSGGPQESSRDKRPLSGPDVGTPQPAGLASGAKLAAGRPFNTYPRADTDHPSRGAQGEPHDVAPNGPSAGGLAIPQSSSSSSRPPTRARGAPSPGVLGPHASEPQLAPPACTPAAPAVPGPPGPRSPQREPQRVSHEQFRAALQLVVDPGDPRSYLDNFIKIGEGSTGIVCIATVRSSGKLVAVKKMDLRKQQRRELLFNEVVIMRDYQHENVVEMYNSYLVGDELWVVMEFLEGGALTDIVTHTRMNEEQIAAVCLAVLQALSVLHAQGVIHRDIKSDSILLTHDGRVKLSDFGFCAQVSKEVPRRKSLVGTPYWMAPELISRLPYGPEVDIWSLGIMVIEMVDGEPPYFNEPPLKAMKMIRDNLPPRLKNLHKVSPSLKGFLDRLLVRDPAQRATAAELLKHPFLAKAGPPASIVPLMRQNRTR

T3 sequence (P16234 whole entry): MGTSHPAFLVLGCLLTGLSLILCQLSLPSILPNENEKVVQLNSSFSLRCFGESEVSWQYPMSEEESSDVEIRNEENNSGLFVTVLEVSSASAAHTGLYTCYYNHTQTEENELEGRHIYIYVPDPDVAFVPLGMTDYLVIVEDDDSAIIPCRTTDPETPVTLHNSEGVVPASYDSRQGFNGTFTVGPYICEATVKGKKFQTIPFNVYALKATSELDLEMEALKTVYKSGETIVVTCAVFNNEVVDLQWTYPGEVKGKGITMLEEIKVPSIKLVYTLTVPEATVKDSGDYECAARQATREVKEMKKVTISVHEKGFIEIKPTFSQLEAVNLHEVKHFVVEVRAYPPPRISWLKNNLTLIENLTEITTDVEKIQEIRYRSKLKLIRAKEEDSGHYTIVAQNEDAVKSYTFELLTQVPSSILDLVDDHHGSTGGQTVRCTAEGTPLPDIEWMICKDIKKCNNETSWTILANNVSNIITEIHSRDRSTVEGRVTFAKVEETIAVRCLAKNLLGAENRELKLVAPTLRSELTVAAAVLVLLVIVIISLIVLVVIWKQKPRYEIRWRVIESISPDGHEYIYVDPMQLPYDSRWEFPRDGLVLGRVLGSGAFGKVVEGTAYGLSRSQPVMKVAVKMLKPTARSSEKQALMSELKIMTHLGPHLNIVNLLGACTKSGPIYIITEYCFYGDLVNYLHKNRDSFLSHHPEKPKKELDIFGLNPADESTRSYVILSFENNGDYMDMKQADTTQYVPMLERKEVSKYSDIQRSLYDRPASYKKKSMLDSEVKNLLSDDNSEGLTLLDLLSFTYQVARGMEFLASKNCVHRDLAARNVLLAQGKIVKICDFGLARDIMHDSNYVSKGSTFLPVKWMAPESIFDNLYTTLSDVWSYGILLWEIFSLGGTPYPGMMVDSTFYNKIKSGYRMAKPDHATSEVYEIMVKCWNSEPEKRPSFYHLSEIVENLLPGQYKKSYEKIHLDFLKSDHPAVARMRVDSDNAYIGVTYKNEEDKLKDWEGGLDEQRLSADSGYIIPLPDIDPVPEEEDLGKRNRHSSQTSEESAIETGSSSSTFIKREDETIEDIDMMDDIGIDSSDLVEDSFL
Sequence of Mitogen-activated protein kinase 1 (P28482 whole entry): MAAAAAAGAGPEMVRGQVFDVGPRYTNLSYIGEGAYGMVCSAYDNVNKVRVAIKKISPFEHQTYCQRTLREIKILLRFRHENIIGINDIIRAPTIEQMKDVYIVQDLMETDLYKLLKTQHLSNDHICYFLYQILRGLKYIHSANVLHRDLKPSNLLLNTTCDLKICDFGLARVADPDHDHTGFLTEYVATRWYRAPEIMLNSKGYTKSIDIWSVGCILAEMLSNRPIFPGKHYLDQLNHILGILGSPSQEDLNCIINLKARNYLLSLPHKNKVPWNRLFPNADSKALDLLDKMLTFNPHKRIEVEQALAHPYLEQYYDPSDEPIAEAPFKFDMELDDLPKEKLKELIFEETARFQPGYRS
Sequence of RAC-alpha serine/threonine-protein kinase (P31749 whole entry): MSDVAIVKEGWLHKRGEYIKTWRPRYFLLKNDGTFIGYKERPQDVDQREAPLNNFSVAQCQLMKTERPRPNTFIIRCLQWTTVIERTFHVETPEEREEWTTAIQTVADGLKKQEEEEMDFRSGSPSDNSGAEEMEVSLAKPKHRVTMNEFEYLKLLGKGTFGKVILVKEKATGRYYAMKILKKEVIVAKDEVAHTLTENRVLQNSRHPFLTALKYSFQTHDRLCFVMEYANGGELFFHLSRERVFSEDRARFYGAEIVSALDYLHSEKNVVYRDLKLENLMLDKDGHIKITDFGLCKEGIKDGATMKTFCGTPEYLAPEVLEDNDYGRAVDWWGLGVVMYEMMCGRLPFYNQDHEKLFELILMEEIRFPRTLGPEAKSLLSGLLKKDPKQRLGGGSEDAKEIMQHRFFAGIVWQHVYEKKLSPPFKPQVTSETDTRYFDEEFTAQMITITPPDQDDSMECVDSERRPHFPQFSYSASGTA
Sequence of D(1A) dopamine receptor (P21728 whole entry): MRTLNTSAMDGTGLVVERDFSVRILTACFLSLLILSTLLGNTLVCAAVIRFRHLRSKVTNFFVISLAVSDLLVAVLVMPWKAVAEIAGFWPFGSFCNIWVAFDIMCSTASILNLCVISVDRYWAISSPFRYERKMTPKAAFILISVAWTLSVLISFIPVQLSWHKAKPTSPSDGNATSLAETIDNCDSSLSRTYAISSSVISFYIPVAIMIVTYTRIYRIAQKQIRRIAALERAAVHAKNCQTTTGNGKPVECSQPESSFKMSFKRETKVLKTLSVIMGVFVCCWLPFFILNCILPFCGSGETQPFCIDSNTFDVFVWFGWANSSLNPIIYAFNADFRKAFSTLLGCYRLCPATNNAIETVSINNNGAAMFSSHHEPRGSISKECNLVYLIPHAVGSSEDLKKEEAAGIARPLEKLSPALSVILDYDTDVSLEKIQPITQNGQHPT
Sequence of D(3) dopamine receptor (P35462 whole entry): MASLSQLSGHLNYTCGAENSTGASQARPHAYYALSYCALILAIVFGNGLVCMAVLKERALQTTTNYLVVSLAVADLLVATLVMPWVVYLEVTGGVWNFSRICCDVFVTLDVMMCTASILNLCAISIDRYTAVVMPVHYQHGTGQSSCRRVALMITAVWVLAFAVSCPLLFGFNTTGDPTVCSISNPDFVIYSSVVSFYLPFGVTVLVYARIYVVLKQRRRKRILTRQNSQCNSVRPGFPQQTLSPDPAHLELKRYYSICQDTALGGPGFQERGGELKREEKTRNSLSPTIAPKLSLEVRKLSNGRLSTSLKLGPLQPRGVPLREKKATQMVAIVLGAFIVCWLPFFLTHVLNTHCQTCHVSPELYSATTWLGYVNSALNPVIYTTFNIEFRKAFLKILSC
Sequence of Calcium/calmodulin-dependent protein kinase type 1G (Homo sapiens) (Q96NX5 whole entry): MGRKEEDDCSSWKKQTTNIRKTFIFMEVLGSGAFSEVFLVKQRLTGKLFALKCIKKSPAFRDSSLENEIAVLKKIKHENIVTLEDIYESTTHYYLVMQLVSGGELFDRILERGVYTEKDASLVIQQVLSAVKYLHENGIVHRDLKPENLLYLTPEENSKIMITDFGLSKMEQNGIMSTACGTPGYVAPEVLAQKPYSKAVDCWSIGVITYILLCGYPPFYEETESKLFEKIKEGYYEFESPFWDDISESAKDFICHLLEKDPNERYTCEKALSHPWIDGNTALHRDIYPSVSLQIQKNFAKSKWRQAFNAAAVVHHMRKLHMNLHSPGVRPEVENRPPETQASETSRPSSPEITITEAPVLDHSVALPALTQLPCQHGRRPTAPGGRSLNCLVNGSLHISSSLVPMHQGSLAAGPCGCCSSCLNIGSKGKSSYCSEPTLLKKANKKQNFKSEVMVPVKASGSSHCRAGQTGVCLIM
Sequence of 5'-AMP-activated protein kinase catalytic subunit alpha-1 (Q13131 whole entry, looked up): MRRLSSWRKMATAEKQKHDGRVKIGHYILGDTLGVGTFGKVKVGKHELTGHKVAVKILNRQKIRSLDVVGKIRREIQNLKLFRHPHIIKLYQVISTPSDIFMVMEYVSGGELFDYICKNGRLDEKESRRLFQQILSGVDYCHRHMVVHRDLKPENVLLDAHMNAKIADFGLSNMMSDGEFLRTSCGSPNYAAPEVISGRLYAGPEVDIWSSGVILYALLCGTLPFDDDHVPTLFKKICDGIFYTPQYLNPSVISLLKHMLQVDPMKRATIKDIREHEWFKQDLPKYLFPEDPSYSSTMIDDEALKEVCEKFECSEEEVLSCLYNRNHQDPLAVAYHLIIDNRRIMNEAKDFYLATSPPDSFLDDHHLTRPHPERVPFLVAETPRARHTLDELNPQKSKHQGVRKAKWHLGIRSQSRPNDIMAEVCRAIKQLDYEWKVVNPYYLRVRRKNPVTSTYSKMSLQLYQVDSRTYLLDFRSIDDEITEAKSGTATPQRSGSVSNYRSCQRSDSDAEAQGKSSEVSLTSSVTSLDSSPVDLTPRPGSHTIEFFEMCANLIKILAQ
Sequence of Calcium/calmodulin-dependent protein kinase type II subunit gamma (Homo sapiens) (Q13555 whole entry): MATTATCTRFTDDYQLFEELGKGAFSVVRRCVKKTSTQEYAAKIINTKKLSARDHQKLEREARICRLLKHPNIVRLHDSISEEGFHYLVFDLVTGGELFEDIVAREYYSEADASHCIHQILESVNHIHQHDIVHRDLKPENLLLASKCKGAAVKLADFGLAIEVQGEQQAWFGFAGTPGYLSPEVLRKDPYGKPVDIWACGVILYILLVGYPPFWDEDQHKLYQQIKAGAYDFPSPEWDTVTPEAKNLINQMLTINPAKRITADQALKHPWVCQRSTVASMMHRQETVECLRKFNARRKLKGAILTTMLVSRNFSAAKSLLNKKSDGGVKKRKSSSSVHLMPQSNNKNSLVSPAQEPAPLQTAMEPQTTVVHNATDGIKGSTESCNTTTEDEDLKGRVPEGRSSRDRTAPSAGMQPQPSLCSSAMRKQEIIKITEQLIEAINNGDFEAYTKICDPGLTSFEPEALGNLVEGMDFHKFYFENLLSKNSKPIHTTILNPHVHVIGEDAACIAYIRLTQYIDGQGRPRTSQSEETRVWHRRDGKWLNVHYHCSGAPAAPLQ

With `COc1cc(N(C)c2ccnc3ccc(C(F)(F)F)cc23)cc(OC)c1OC` as the molecule, how does the % binding [1] read?
The % binding was 97%.

For `COCC(=O)NC/C=C/c1ccc2ncnc(Nc3ccc(Oc4ccc(C)nc4)c(C)c3)c2c1` [CP-724714], which % of control [2] is on record?
Its % of control is 92%.

How did the % of inhibition (D(3) dopamine receptor) turn out when `Nc1cnc(N2CCc3cc(S(=O)(=O)Nc4c(F)cc(Cl)cc4F)cc(N4CCCC4=O)c32)nc1` [TP-020n] was run?
Its % of inhibition is 7.41%.

Which % of control [3] does the source give for `Cn1cc(-n2cnc3c(NCc4nc5cc(Cl)c(Cl)cc5[nH]4)nc(N4CCOCC4)nc32)cn1` here?
Its % of control is 7.22%.

For `O=C(NOC[C@H](O)CO)c1ccc(F)c(F)c1Nc1ccc(I)cc1F`, which % of control [4] is on record?
The % of control was 100%.

`Cc1cc(CN)cc(C)c1-c1ncn(C)c1-c1cncn1C` was tested. Which dTM [5] did it give?
The dTM was -1.35 K.

`Cc1cc([C@@H](C)Nc2ccccc2C(=O)O)c2nc(N3CCOCC3)cc(=O)n2c1` [AZD-6482] was tested. Which % of control [6] did it give?
The % of control was 100%.

Which % of control [7] does the source give for `COc1cc(Nc2nc(C)cc(-c3cnn4nc(OC)ccc34)n2)cc(C(F)(F)F)c1` here?
The % of control was 90%.

What about the % of control [8] of the same molecule?
The % of control was 71%.

And the % of control [9]?
Its % of control is 95%.

What does the source list for `CCC(=O)N1CC[C@H](Nc2ncnc3c2CN(c2cnc(OC)c(C(F)(F)F)c2)CC3)C1` [LENIOLISIB]?
IC50 [10]: > 10 µM; IC50 (D(1A) dopamine receptor): > 30 µM

How did the IC50 [11] turn out when `CCc1cccc(CC)c1NC(=O)c1nn(C)c2c1CCc1cnc(Nc3ccc(C(=O)NC4CCN(C)CC4)cc3OC(F)(F)F)nc1-2` was run?
Its IC50 is > 10 µM.

How did the % of inhibition [12] turn out when `CN1Cc2nccc(-c3cn(C)nc3-c3ccc(F)cc3)c2C1=O` was run?
Its % of inhibition is 2%.

Which results are given for `CNC(=O)Nc1ccc(-c2nc(N3CC4CCC(C3)O4)c3cnn(C4CCC5(CC4)OCCO5)c3n2)cc1`?
% of control [13]: 87%; % of inhibition [14]: 5%; % of control [15]: 100%

What does the source list for `CCn1c(-c2nc3cc(C(=O)N4CCCC(N)C4)ccc3n2C)cc2ccccc21` (configuration not stated)?
XC50 [16]: > 100 µM; pXC50 [17]: 4.6 M

Which % of control [18] does the source give for `CCN(CC)CCCCNc1ncc2cc(-c3cc(OC)cc(OC)c3)c(NC(=O)NC(C)(C)C)nc2n1` here?
The % of control was 100%.

For `CCC(=O)N1CCN(c2ccc(-n3c(=O)ccc4cnc5ccc(-c6cnc7ccccc7c6)cc5c43)cc2C(F)(F)F)CC1`, which % of control [19] is on record?
Its % of control is 63%.

How did the % of control [20] turn out when `CN(C)C/C=C/C(=O)Nc1ccc(C(=O)N2CCCC(Nc3ncc(Cl)c(-c4c[nH]c5ccccc45)n3)C2)cc1` (configuration not stated) was run?
The % of control was 78%.
